Reference: patent publication US7264956B2, “Compounds and methods for inhibiting axillary malodour” (Givaudan SA, priority 2001, dated 2007)
Where two headings read alike, the source gives them in different places. Where a SMILES comes first, the peptide text is derived from it.

Legend:
[1] = target: T1, enzyme extracted from Corynebacterium striatum A×20 (AMRE, Nα-acyl-glutamine-aminoacylase) (Corynebacterium striatum, UniProt Q8GGD4); test: Substrate specificity of the enzyme (capillary GC of released acid or alcohol); assay type: biochemical; settings: for Cleavage by enzyme: 500 ppm in Buffer A, 24 h incubation
T1 construct: an enzyme may be isolated from cellular extracts obtained from wild-type bacterial strains; endogenous in cells; host or cells: Corynebacterium striatum Ax20 (DSM 14267), mechanically disrupted; crude extract or chromatographically purified enzyme
T1 sequence (Q8GGD4 2-400): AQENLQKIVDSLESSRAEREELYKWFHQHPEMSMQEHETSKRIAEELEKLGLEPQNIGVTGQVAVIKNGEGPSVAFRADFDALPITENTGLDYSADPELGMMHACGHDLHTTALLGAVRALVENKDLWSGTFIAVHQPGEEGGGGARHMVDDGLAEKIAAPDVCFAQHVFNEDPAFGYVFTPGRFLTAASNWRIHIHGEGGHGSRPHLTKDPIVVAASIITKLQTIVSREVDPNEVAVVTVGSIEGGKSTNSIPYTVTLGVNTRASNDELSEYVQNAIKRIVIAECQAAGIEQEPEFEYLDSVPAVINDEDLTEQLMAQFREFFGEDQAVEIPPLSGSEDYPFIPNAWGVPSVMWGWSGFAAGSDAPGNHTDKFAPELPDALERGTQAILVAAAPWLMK
Protocol: To understand in detail the structural requirements of substrates, the enzyme extracted from Corynebacterium striatum A×20 was incubated with a wide variety of said compounds related to the originally isolated Nα-3-methyl-3-hydroxy-hexanoyl-L-glutamine present in sweat. Each compound was used at a concentration of 500 ppm in Buffer A, and analysis of released acid or alcohol was done by capillary GC after 24 h of incubation. First, different modifications at the N-terminus were tested.

[2] = target: T2, isolated enzyme (extracts of A×20) (Corynebacterium striatum, UniProt Q8GGD4); test: Low throughput screening for inhibitors, isolated enzyme (released lauric acid by GC); assay type: biochemical; settings: substrate Nα-lauroyl-L-glutamine, 2 h; for inhibition at 5000 µM / % inhibition of the isolated enzyme: 5 mM
T2 construct: an enzyme may be isolated from cellular extracts obtained from wild-type bacterial strains; endogenous in cells; host or cells: Corynebacterium striatum Ax20 (DSM 14267), mechanically disrupted; crude extract or chromatographically purified enzyme
T2 sequence (Q8GGD4 2-400): as above
Protocol: (§1) Extracts of A×20 were prepared by mechanical disruption as described in Example 3. The extract (0.5 ml corresponding to 2 ml initial cell culture) was added to 3.5 ml of Buffer A and amended with 40 μl of substrate (Nα-lauroyl-L-glutamine, 5% stock solution in methanol). Parallel samples were additionally amended with potential inhibitory compounds to give a final concentration of 0.5 and 5 mM. The samples were incubated for 2 h and then extracted with MTBE and HCI and analysed for released lauric acid using capillary GC. By comparing the samples containing potential inhibitory compounds with control samples with enzyme and substrate only, the inhibition (%) was calculated. The same assay was also made either with purified enzyme from the wild-type strain (see example 3) or with extracts from E.coli Top 10/pBADgIII AMRE induced with arabinose (see example 6). Furthermore, the same assay was made using stationary phase living cells of A×20 instead of an isolated enzyme preparation. In this case successful uptake of the inhibitors into the cells and inhibition are measured simultaneously.

[3] = target: T3, enzyme activity in living cells of A×20 (Corynebacterium striatum, UniProt Q8GGD4); test: Low throughput screening for inhibitors, stationary phase living cells of A×20; assay type: cell-based; settings: 5 mM; substrate Nα-lauroyl-L-glutamine, 2 h
T3 construct: stationary phase living cells of A×20; endogenous in cells; host or cells: Corynebacterium striatum Ax20, stationary-phase living cells
T3 sequence (Q8GGD4 2-400): as above
Protocol: as §1

SMILES	cleavage of substrate by enzyme (in words) [1]	Cleavage by enzyme [1]	further results
CC(C)=CCCC(C)CCOC(=O)N[C@@H](CCC(N)=O)C(=O)O (stereo partly drawn) [compound 5, Nα-3,7-Dimethyl-6-octenyloxycarbonyl-L-glutamine]	can cleave	+++ (+++ cleavage over 50%)	
CC(C)C[C@H](NC(=O)OCc1ccccc1)C(=O)O [compound 18, Carbobenzyloxy-L-leucine]		−	
O=C(O)CNC(=O)OCc1ccccc1 [compound 16, Carbobenzyloxy-L-glycine]		−	
O=C(CC[C@H](NOCc1ccccc1)C(=O)O)NCc1ccccc1 [compound 22, 4-benzylcarbamoyl-2-(S)-benzyloxyamino-butyric acid]	cannot cleave	−	
CCCCCCCCCCCC(=O)N[C@@H](CCCNC(=N)N)C(=O)O [compound 8, Nα-Lauroyl-L-arginine]		−	
NC(=O)CC[C@H](NC(=O)OCc1ccccc1)C(=O)O [compound 4, Carbobenzyloxy-L-glutamine]		++ (++ cleavage 10–50%)	cleavage of substrate by enzyme (in words) ([1]; listed as Nα-Carbobenzyloxy-L-glutamine): able to be cleaved; cleavage of substrate by enzyme (in words) ([1]; listed as Nα-carbobenzyloxy-L-glutamine): can cleave
c1ccc(-c2ccccn2)nc1 [2,2′-bipyridyl]			inhibition at 5000 µM [2]: 65%
NC(=O)CC[C@H](NC(=O)OCC12CC3CC(CC(C3)C1)C2)C(=O)O [Nα-(2-Adamantan-1-yl-methoxycarbonyl)-L-glutamine]	able to be cleaved		
O=P(O)(O)CN(CP(=O)(O)O)CP(=O)(O)O [Aminotri(methylene-phosphonic acid)]			% inhibition of enzyme activity in living cells [3]: 55.7%; % inhibition of the isolated enzyme [2]: 76.6%
CC1=CCC(CCOC(=O)N[C@@H](CCC(N)=O)C(=O)O)C1(C)C (stereo partly drawn) [Nα-[2-(2,2,3-trimethyl-cyclopent-3-enyl)-ethoxycarbonyl)-L-glutamine]	able to be cleaved		
CCCCCCCCCCCC(=O)N[C@@H](CCCCN)C(=O)O [compound 7, Nα-Lauroyl-L-lysine]		−	
CCC(NCCNC(CC)C(=O)O)C(=O)O (stereo not drawn) [Ethylen-diimino-dibutyric acid]			% inhibition of enzyme activity in living cells [3]: 53.7%; % inhibition of the isolated enzyme [2]: 44.3%
NC(=O)CC[C@H](NC(=O)OCCc1ccccc1)C(=O)O [Nα-2-Phenylethyloxycarbonyl-L-glutamine]	able to be cleaved		
NC(=O)CC[C@H](NC(=O)OCc1ccccc1)C(=O)NCC(=O)O [compound 21, Carbobenzyloxy-L-glutamine- Gly-OH] (HELM PEPTIDE1{[O=C(OCc1ccccc1)[*:2]].Q.G}$$$$V2.0)	does not cleave	−	
CCCCCCCCCCCC(=O)N[C@@H](CC(=O)O)C(=O)O [compound 6, N-Lauroyl-L-aspartate]		−	
CCCCCCCCCC(=O)N[C@@H](CCC(N)=O)C(=O)O [compound 3, Nα-decanoyl-L-glutamine]		+++ (+++ cleavage over 50%)	
c1ccc(CN(CCN(Cc2ccccn2)Cc2ccccn2)Cc2ccccn2)nc1 [N,N,N′,N′-tetrakis-(2-pyridylmethyl)-ethylendiamine]			inhibition at 5000 µM [3]: 85.2%; inhibition at 5000 µM [2]: 87.9%
CCCCCCCCCC(=O)N[C@@H](CCC(N)=O)C(=O)O [Nα-decanoyl-L-glutamine]	able to be cleaved		
CC(CCOC(=O)N[C@@H](CCC(N)=O)C(=O)O)CCc1ccccc1 (stereo partly drawn) [Nα-(3-Methyl-5-phenylpentanoxycarbonyl)-L-glutamine]	able to be cleaved		
O=C(O)C[C@H](NC(=O)OCc1ccccc1)C(=O)O [compound 13, Carbobenzyloxy-L-aspartate]		−	
O=C(O)c1cccc(C(=O)O)n1 [Pyridine-2,6dicarboxylic acid]			inhibition at 5000 µM [3]: 64.3%; inhibition at 5000 µM [2]: 100%

SMILES	cleavage of substrate by enzyme (in words) [1]	Cleavage by enzyme [1]	further results
O=C(N[C@@H](CO)C(=O)O)OCc1ccccc1 [compound 14, Carbobenzyloxy-L-serine]		−	
COC(=O)[C@H](CCC(N)=O)NC(=O)OCc1ccccc1 [compound 20, Carbobenzyloxy-L-glutamine-O-Me]	does not cleave	−	
NC(=O)CC[C@H](NC(=O)OCCC12CC3CC(CC(C3)C1)C2)C(=O)O [Nα-(2-Adamantan-1-yl-ethoxycarbonyl)-L-glutamine]	able to be cleaved		
O=C(N[C@@H](Cc1ccc(O)cc1)C(=O)O)OCc1ccccc1 [compound 15, Carbobenzyloxy-L-tyrosine]		−	
CCCCCCCCCCCCCC(=O)N[C@@H](CCC(N)=O)C(=O)O [Nα-tetradecanoyl-L-glutamine]	able to be cleaved		
C=CCCCCCCCCC(=O)N[C@@H](CCC(N)=O)C(=O)O [Nα-(11-undecenoyl)-L-glutamine]	able to be cleaved		
CCCCOC(=O)N[C@@H](CCC(N)=O)C(=O)O [Nα-Butyloxycarbonyl-L-glutamine]	able to be cleaved		
NC(=O)CC[C@@H](NC(=O)OCc1ccccc1)C(=O)O [compound 19, Carbobenzyloxy-D-glutamine]	cannot cleave	−	
CCCC(C)=CC(=O)N[C@@H](CCC(N)=O)C(=O)O [Nα(3-methyl-2-hexenoyl)-L-glutamine]	able to be cleaved		
O=C(O)CNCCNCC(=O)O [Ethylendiamine-2-2′-diacetic acid]			% inhibition of enzyme activity in living cells [3]: 58.3%; % inhibition of the isolated enzyme [2]: 100%
CCCC(C)(O)CC(=O)N[C@@H](CCC(N)=O)C(=O)O (stereo partly drawn) [Nα-(3-hydroxy-3-methyl-hexanoyl)-L-glutamine]	able to be cleaved		
OC(CS)C(O)CS (stereo not drawn) [Dithiothreitol, 2,3-dihydroxy-butane-1,4-dithiol]			inhibition at 500 µM ([2]; 0.5 mM): 98%; inhibition at 5000 µM [2]: 100%
O=C(O)CC[C@H](NC(=O)OCc1ccccc1)C(=O)O [compound 11, Carbobenzyloxy-L-glutamate]		−	
CCC=CCCOC(=O)N[C@@H](CCC(N)=O)C(=O)O [Nα-(3-hexenyl)oxycarbonyl-L-glutamine]	able to be cleaved		
CCCCCCCCCCCC(=O)N[C@@H](C)C(=O)O [compound 9, N-lauroyl-L-alanine]		+ (+ indicates cleavage < 10%)	
COc1ccc(SC(=O)N[C@@H](CCC(N)=O)C(=O)O)cc1 [Nα-(4-methoxy-phenylsulfanylcarbonyl)-L-glutamine]	able to be cleaved		
CC(C)=CCCC(C)CCOC(=O)N[C@@H](CCC(N)=O)C(=O)O (stereo partly drawn) [Nα-3,7-Dimethyl-6-octenyloxycarbonyl-L-glutamine]	able to be cleaved		
C[C@H](NC(=O)OCc1ccccc1)C(=O)O [compound 10, Carbobenzyloxy-L-alanine]		+ (+ indicates cleavage < 10%)	
CC(C)(C)C1CCC(OC(=O)N[C@@H](CCC(N)=O)C(=O)O)CC1 (stereo partly drawn) [Nα-(4-tert-Butylcyclohexyloxycarbonyl)-L-glutamine]	able to be cleaved		
O=C(N[C@@H](Cc1c[nH]cn1)C(=O)O)OCc1ccccc1 [compound 17, Carbobenzyloxy-L-histidine]		−	
